In ChEMBL document CHEMBL1949499, “Nicotinic acids: liver-targeted SCD inhibitors with preclinical anti-diabetic efficacy” (Bioorg Med Chem Lett, 2011):

How the values were obtained:
[1] = Plasma concentration in C57/BL6 mouse at 30 mg/kg, po after 24 hrs; assay type: ADME, organism-based; set-up: dose 30 mg/kg, route oral
[2] = Volume of distribution at steady state in Sprague-Dawley rat at 10 mg/kg, po and 2 mg/kg, iv; assay type: ADME, organism-based; conditions: in vivo, read-out: Vdss
[3] = Drug uptake in C57/BL6 mouse heart at 30 mg/kg, po after 24 hrs; assay type: ADME, organism-based; set-up: dose 30 mg/kg, route oral; conditions: read-out: Drug uptake
[4] = Drug uptake in C57/BL6 mouse heart at 30 mg/kg, po after 2 hrs; assay type: ADME, organism-based; set-up: dose 30 mg/kg, route oral; conditions: read-out: Drug uptake
[5] = Plasma concentration in high sucrose/fat free diet fed C57/BL6 mouse at 10 mg/kg, po after 3 hrs; assay type: ADME, organism-based; set-up: dose 10 mg/kg, route oral
[6] = Drug uptake in C57/BL6 mouse kidney at 30 mg/kg, po after 24 hrs; assay type: ADME, organism-based; set-up: dose 30 mg/kg, route oral; conditions: read-out: Drug uptake
[7] = Drug uptake in C57/BL6 mouse harderian glands at 30 mg/kg, po after 2 hrs; assay type: ADME, organism-based, Harderian gland; set-up: dose 30 mg/kg, route oral; conditions: read-out: Drug uptake
[8] = Plasma concentration in high sucrose/fat free diet fed C57/BL6 mouse at 30 mg/kg, po after 3 hrs; assay type: ADME, organism-based; set-up: dose 30 mg/kg, route oral
[9] = Volume of distribution at steady state in C57/BL6 mouse at 10 mg/kg, po and 2 mg/kg, iv; assay type: ADME, organism-based; conditions: in vivo, read-out: Vdss
[10] = system: Mus musculus; assay: Acute antidiabetic activity in high fat diet fed C57/BL6 mouse eDIO model assessed as increase in glucose clearance at 30 mg/kg, po administered 1 hr prior to glucose challenge by oGTT assay; assay type: functional
[11] = system: Nucleic Acid; assay: Ratio of drug uptake in left median liver lobe to harderian gland in C57/BL6 mouse at 30 mg/kg, po after 2 hrs; assay type: ADME, organism-based; set-up: dose 30 mg/kg, route oral; conditions: in vivo
[12] = Drug uptake in C57/BL6 mouse kidney at 30 mg/kg, po after 2 hrs; assay type: ADME, organism-based; set-up: dose 30 mg/kg, route oral; conditions: read-out: Drug uptake
[13] = system: Nucleic Acid; assay: Ratio of drug uptake in left median liver lobe to harderian gland in C57/BL6 mouse at 30 mg/kg, po after 6 hrs; assay type: ADME, organism-based; set-up: dose 30 mg/kg, route oral; conditions: in vivo
[14] = system: Mus musculus; assay: Inhibition of SCD activity in high sucrose/fat free diet fed C57/BL6 mouse liver assessed as reduction in conversion of [14C]stearic acid to [14C]oleic acid at 100 mg/kg, po; assay type: functional
[15] = Drug uptake in high fat diet fed C57/BL6 mouse eDIO model whole blood at 30 mg/kg, po after 3 hrs; assay type: ADME, organism-based; set-up: dose 30 mg/kg, route oral; conditions: read-out: Drug uptake
[16] = AUC in Sprague-Dawley rat plasma at 10 mg/kg, po and 2 mg/kg, iv; assay type: ADME, organism-based
[17] = Oral bioavailability in C57/BL6 mouse plasma at 10 mg/kg; assay type: ADME, organism-based
[18] = Drug uptake in C57/BL6 mouse left median liver lobe at 30 mg/kg, po after 24 hrs; assay type: ADME, organism-based; set-up: dose 30 mg/kg, route oral; conditions: read-out: Drug uptake
[19] = AUC in C57/BL6 mouse plasma at 10 mg/kg, po and 2 mg/kg, iv; assay type: ADME, organism-based
[20] = biological target: T1, Acyl-CoA desaturase 1 (Rattus norvegicus, UniProt P07308); assay: Inhibition of SCD1 in Sprague-Dawley rat hepatocytes assessed as conversion of [14C]oleic acid formation by HPLC analysis; assay type: cell-based, Hepatocyte
T1 sequence (P07308 whole entry): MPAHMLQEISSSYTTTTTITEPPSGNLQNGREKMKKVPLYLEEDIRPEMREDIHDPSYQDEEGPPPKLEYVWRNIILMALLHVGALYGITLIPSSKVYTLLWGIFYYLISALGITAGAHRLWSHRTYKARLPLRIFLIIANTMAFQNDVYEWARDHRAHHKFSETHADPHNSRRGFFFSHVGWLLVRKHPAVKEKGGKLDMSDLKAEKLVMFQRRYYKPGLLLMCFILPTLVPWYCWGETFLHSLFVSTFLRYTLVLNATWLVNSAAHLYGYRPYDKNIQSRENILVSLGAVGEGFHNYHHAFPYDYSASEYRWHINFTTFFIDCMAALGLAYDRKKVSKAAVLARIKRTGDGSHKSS

[21] = Drug uptake in C57/BL6 mouse left median liver lobe at 30 mg/kg, po after 2 hrs; assay type: ADME, organism-based; set-up: dose 30 mg/kg, route oral; conditions: read-out: Drug uptake
[22] = Drug uptake in C57/BL6 mouse cerebellum at 30 mg/kg, po after 6 hrs; assay type: ADME, organism-based; set-up: dose 30 mg/kg, route oral; conditions: read-out: Drug uptake
[23] = Drug uptake in C57/BL6 mouse harderian glands at 30 mg/kg, po after 6 hrs; assay type: ADME, organism-based, Harderian gland; set-up: dose 30 mg/kg, route oral; conditions: read-out: Drug uptake
[24] = Plasma concentration in C57/BL6 mouse at 30 mg/kg, po after 6 hrs; assay type: ADME, organism-based; set-up: dose 30 mg/kg, route oral
[25] = Drug uptake in C57/BL6 mouse cerebellum at 30 mg/kg, po after 2 hrs; assay type: ADME, organism-based; set-up: dose 30 mg/kg, route oral; conditions: read-out: Drug uptake
[26] = Drug uptake C57/BL6 in mouse left median liver lobe at 30 mg/kg, po after 6 hrs; assay type: ADME, organism-based; set-up: dose 30 mg/kg, route oral; conditions: read-out: Drug uptake
[27] = Drug uptake in high fat diet fed C57/BL6 mouse eDIO model whole blood at 100 mg/kg, po after 3 hrs; assay type: ADME, organism-based; set-up: dose 100 mg/kg, route oral; conditions: read-out: Drug uptake
[28] = Plasma concentration in high sucrose/fat free diet fed C57/BL6 mouse at 100 mg/kg, po after 3 hrs; assay type: ADME, organism-based; set-up: dose 100 mg/kg, route oral
[29] = Drug uptake in high sucrose/fat free diet fed C57/BL6 mouse liver at 10 mg/kg, po after 3 hrs; assay type: ADME, organism-based; set-up: dose 10 mg/kg, route oral; conditions: read-out: Drug uptake
[30] = biological target: T2, Stearoyl-CoA desaturase (Homo sapiens, UniProt O00767); assay: Inhibition of human SCD1
T2 sequence (O00767 whole entry): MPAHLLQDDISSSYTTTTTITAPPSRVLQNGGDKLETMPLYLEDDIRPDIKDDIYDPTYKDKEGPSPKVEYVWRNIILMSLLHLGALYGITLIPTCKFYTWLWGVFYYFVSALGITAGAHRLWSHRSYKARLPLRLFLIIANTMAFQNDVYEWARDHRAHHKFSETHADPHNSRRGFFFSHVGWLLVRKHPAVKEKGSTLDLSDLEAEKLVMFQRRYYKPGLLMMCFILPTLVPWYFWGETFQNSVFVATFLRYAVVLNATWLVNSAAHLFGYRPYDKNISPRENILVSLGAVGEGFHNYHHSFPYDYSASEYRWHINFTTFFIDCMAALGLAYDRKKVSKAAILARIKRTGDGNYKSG

[31] = system: Mus musculus; assay: Acute antidiabetic activity in high fat diet fed C57/BL6 mouse eDIO model assessed as increase in glucose clearance at 100 mg/kg, po administered 1 hr prior to glucose challenge by oGTT assay; assay type: functional
[32] = Half life in C57/BL6 mouse at 10 mg/kg, po and 2 mg/kg, iv; assay type: ADME, organism-based; conditions: in vivo
[33] = system: Mus musculus; assay: Acute antidiabetic activity in high fat diet fed po dosed C57/BL6 mouse eDIO model assessed as increase in glucose clearance administered 1 hr prior to glucose challenge by oGTT assay; assay type: functional, organism-based
[34] = biological target: ATP-binding cassette sub-family C member 2 (Homo sapiens, UniProt Q92887); assay: Binding affinity to MRP2 expressed in MDCK2 cells coexpressing OATP1B1; assay type: cell-based; conditions: dog, mdck-ii
Chain of ATP-binding cassette sub-family C member 2 (Q92887 whole entry): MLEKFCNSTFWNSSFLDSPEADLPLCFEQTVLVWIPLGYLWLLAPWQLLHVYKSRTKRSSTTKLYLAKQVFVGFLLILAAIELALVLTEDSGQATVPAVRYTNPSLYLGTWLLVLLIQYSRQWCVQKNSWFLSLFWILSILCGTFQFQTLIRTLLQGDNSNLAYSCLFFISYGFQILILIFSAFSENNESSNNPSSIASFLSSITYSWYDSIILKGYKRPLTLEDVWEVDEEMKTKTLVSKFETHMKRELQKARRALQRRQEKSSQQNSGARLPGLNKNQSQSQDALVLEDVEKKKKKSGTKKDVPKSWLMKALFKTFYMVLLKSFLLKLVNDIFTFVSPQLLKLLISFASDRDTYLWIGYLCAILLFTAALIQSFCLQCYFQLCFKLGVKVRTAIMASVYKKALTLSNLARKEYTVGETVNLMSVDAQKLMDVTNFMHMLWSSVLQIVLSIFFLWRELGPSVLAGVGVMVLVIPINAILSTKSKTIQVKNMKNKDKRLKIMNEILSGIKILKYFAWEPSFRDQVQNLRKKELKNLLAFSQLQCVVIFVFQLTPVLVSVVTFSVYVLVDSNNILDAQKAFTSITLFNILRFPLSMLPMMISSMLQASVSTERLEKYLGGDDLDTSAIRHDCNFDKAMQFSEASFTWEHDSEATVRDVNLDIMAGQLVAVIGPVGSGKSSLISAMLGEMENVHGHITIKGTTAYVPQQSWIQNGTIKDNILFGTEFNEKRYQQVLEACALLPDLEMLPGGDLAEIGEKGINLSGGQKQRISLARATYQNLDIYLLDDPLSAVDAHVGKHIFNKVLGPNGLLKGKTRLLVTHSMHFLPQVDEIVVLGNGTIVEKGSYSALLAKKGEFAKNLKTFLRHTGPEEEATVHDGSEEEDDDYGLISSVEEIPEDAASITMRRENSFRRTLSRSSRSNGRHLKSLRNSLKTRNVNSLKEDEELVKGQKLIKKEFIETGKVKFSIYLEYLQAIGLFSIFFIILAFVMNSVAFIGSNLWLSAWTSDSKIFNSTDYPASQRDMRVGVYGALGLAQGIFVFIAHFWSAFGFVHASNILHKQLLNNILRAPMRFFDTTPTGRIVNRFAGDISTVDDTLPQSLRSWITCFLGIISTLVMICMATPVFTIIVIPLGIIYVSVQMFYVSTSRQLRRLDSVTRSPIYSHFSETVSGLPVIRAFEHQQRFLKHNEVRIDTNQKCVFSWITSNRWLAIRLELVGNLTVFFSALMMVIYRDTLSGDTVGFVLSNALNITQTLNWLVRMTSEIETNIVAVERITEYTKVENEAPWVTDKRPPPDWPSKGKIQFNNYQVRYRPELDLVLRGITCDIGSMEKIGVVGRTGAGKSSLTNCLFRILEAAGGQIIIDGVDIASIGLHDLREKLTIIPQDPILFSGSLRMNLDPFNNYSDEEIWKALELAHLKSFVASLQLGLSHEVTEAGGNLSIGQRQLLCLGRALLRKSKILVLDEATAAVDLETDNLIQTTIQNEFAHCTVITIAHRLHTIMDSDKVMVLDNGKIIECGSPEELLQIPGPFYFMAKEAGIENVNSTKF

[35] = Drug uptake in C57/BL6 mouse left epididymal fat at 30 mg/kg, po after 2 hrs; assay type: ADME, organism-based, Epididymal fat pad; set-up: dose 30 mg/kg, route oral; conditions: male, read-out: Drug uptake
[36] = Half life in Sprague-Dawley rat at 10 mg/kg, po and 2 mg/kg, iv; assay type: ADME, organism-based; conditions: in vivo
[37] = Drug uptake in C57/BL6 mouse skin at 30 mg/kg, po after 24 hrs; assay type: ADME, organism-based, Zone of skin; set-up: dose 30 mg/kg, route oral; conditions: read-out: Drug uptake
[38] = system: Mus musculus; assay: Inhibition of SCD activity in high sucrose/fat free diet fed po dosed C57/BL6 mouse liver assessed as reduction in conversion of [14C]stearic acid to [14C]oleic acid; assay type: functional, organism-based

concentration at 24 h [1]: 5 nM
Vd [2]: 0.41 L/kg
concentration at 24 h [3]: 32 nM
concentration at 2 h [4]: 177 nM
concentration at 3 h [5]: 120 nM
concentration at 24 h [6]: 29 nM
concentration at 2 h [7]: 389 nM
concentration at 3 h [8]: 450 nM
Vd [9]: 1.12 L/kg
Ratio [11]: 11
concentration at 2 h [12]: 6140 nM
Ratio [13]: > 50
concentration at 3 h [15]: 320 nM
AUC [16]: 17.8 µM·h
bioavailability [17]: 8%
concentration at 24 h [18]: 32 nM
AUC [19]: 0.3 µM·h
IC50 [20]: 175 nM
concentration at 2 h [21]: 4390 nM
concentration at 6 h [22]: 17 nM
concentration at 6 h [23]: 98 nM
concentration at 6 h [24]: 626 nM
concentration at 2 h [25]: 10 nM
concentration at 6 h [26]: 5200 nM
concentration at 3 h [27]: 2240 nM
concentration at 3 h [28]: 4390 nM
concentration at 3 h [29]: 2970 nM
IC50 [30]: 7 nM
half-life [32]: 24 min
Activity [34]: Active
concentration at 2 h [35]: 106 nM
half-life [36]: 84 min
concentration at 24 h [37]: 12 nM
Structure (SMILES): O=C(O)c1cncc(-c2ccc(N3CCC(Oc4cc(F)ccc4Br)CC3)nn2)c1
Activity [10]: 59%
inhibition in vivo at 100 mg/kg [14]: 86%
Activity [31]: 90%
Activity [33]: Dose-dependent effect
inhibition [38]: Dose-dependent effect
